According to patent US7384636B2, “Polypeptide” (Kabushiki Kaisha Hayashibara Seibutsu Kagaku Kenkyujo, priority 2003, dated 2008):

Tests used:
Assay type in all cases: in vivo
[1] = test system: the immunized peptide; assay: Titer against the immunized peptide, BALB/c mice immunized intranasally (Experiment 8); conditions: intranasal
Method: (§1) All the mice were bled after one week.
(§2) As a negative control, DUP was prepared.

[2] = test system: OMP; assay: Titer against OMP, BALB/c mice immunized intranasally (Experiment 8); conditions: intranasal
Method: as §1, §2

[3] = test system: OMP; assay: Titer against OMP, B10 mice immunized intranasally (Experiment 7); conditions: intranasal, with or without CT
Method: as §1, §2

[4] = test system: the immunized peptide; assay: Titer against the immunized peptide, B10 mice immunized intranasally (Experiment 7); conditions: intranasal, with or without CT
Method: as §1, §2

[5] = test system: the immunized polypeptide; assay: Titer against the immunized peptide, BALB/c mice immunized intraperitoneally (Experiment 5); conditions: intraperitoneal
Description: as §1

[6] = test system: OMP; assay: Titer against OMP, BALB/c mice immunized intraperitoneally (Experiment 5); conditions: intraperitoneal
Description: as §1

## OMP-KK-OVAp: SEQ ID NO:40, control, OMP linked by KK to OVA peptide fragment (LAVYWELLAKYLLDRVQKVAKKISQAVHAAHAEINE; OMP-KK-OVAp)
[1]
  Titer against the immunized peptide: 1,589
[2]
  Titer against OMP: 108

## RGD-OMP-KK-UP: SEQ ID NO:32, RGD at N-terminal side of OMP in OMP-KK-UP (RGDLAVYWELLAKYLLDRVQKVAKKTYEAALKQYEADL; RGD-OMP-KK-UP)
[3]
  Titer against OMP: 32
[4]
  Titer against the immunized peptide: 11,514

## T1-RGD-KK-UP: SEQ ID NO:39, T1 T cell epitope, RGD, KK linker, UP (KQIINMWQAVGKAMYARGDKKTYEAALKQYEADL; T1-RGD-KK-UP)
[1]
  Titer against the immunized peptide: 1,707

## OMP-RGD-KK-UP: SEQ ID NO:33, RGD at C-terminal side of OMP (LAVYWELLAKYLLDRVQKVARGDKKTYEAALKQYEADL; OMP-RGD-KK-UP)
[3]
  Titer against OMP: 16
[4]
  Titer against the immunized peptide: 24,370

## OMP-KK-RGD-UP: SEQ ID NO:34, RGD at N-terminal side of UP (LAVYWELLAKYLLDRVQKVAKKRGDTYEAALKQYEADL; OMP-KK-RGD-UP)
[3]
  Titer against OMP: 16
[4]
  Titer against the immunized peptide: 723

## OMP-KK-UP: SEQ ID NO:20, KK inserted between OMP and UP (LAVYWELLAKYLLDRVQKVAKKTYEAALKQYEADL; OMP-KK-UP)
[3]
  Titer against OMP: 32
[4]
  Titer against the immunized peptide: 128
[5]
  Titer against the immunized peptide: 782,685
[6]
  Titer against OMP: 1,731

## T1-KK-UP: SEQ ID NO:41, control, T1 peptide of HIV IIIB gp120 linked by KK to UP (KQIINMWQAVGKAMYAKKTYEAALKQYEADL; T1-KK-UP)
[1]
  Titer against the immunized peptide: 160

## OMP-KK-UP-RGD: SEQ ID NO:35, RGD at C-terminal side of UP (LAVYWELLAKYLLDRVQKVAKKTYEAALKQYEADLRGD; RGD-KK-UP-RGD)
[3]
  Titer against OMP: 16
[4]
  Titer against the immunized peptide: 9,483

## UP-KK-OMP: SEQ ID NO:21, KK inserted between UP and OMP (TYEAALKQYEADLKKLAVYWELLAKYLLDRVQKVA; UP-KK-OMP)
[5]
  Titer against the immunized peptide: 29,921
[6]
  Titer against OMP: 1,211
